In US7759337B2, “Phthalazine compounds and methods of use” (Amgen Inc., priority 2005, dated 2010):

System: production of TNF by monocytes activated with bacterial lipopolysaccharide (LPS)
Experiment: Lipopolysaccharide-activated monocyte TNF production assay
Assay type: cell-based
Conditions: Homo sapiens; whole blood monocyte assay (LPS induced TNF release)
Method: Test compounds were evaluated in vitro for the ability to inhibit the production of TNF by monocytes activated with bacterial lipopolysaccharide (LPS). Fresh residual source leukocytes (a byproduct of plateletpheresis) were obtained from a local blood bank, and peripheral blood mononuclear cells (PBMCs) were isolated by density gradient centrifugation on Ficol-Paque Plus (Pharmacia). PBMCs were suspended at 2×10^6/mL in DMEM supplemented to contain 2% FCS, 10 mM, 0.3 mg/mL […], 100 U/mL penicillin G and […] streptomycin sulfate (complete media). Cells were plated into Falcon flat bottom, 96 well culture plates (200 μL/well) and cultured overnight at 37° C. and 6% CO2. Non-adherent cells were removed by washing with 200 μl/well of fresh medium.
Test compounds were dissolved in […]. Compound stock solutions were prepared to an initial concentration of […]. Stocks were diluted initially to 20-200 μM in complete media. Nine two-fold serial dilutions of each compound were then prepared in complete medium.
One hundred microliters of each test compound dilution were added to microtiter wells containing adherent monocytes and 100 μL complete medium. Monocytes were cultured with test compounds for 60 min at which time 25 μL of complete medium containing 30 ng/mL lipopolysaccharide from E. coli K532 were added to each well. Cells were cultured an additional 4 hrs. Culture supernatants were then removed and TNF presence in the supernatants was quantified using an ELISA.
Flat bottom, 96 well Corning High Binding ELISA plates were coated overnight (4° C.) with 150 μL/well of 3 μg/mL murine anti-human TNF-α MAb (R&D Systems #MAB210). Wells were then blocked for 1 h at room temperature with 200 μL/well of CaCl2-free ELISA buffer supplemented to contain 20 mg/mL BSA (standard ELISA buffer: […], 150 mM NaCl, 2 mM CaCl2, 0.15 mM thimerosal, pH 7.4). Plates were washed and replenished with 100 μL of test supernatants (diluted 1:3) or standards. Standards consisted of eleven 1.5-fold serial dilutions from a stock of I ng/mL recombinant human TNF (R&D Systems). Plates were incubated at room temperature for 1 h on orbital shaker (300 rpm), washed and replenished with 100 μL/well of 0.5 μg/mL goat anti-human TNF-α (R&D systems #AB-210-NA) biotinylated at a 4:1 ratio. Plates were incubated for 40 min, washed and replenished with 100 μL/well of alkaline phosphatase-conjugated streptavidin (Jackson ImmunoResearch #016-050-084) at 0.02 μg/mL. Plates were incubated 30 min, washed and replenished with 200 μL/well of 1 mg/mL of p-nitrophenyl phosphate. After 30 min, plates were read at 405 nm on a Vmax plate reader.
Standard curve data were fit to a second order polynomial and unknown TNF-α concentrations determined from their OD by solving this equation for concentration. TNF concentrations were then plotted vs. test compound concentration using a second order polynomial. This equation was then used to calculate the concentration of test compounds causing a 50% reduction in TNF production.

Compound: CNC(=O)c1ccc(C)c(-c2ccc3c(NC(C)C)nncc3c2)c1 [Example 10, 3-(1-(isopropylamino)phthalazin-6-yl)-N,4-dimethylbenzamide]
- IC50: ≤ 5 µM

Compound: Cc1ccc(C(=O)NC2CC2)cc1-c1ccc2c(-c3ccc(C(F)(F)F)cc3C(F)(F)F)nncc2c1 [Example 11, 3-(1-(2,4-bis(trifluoromethyl)phenyl)phthalazin-6-yl)-N-cyclopropyl-4-methylbenzamide]
- IC50: ≤ 5 µM

Compound: Fc1ccc(Oc2ccc3c(-c4ccccc4Cl)nncc3c2)cc1 [Example 12, 1-(2-chlorophenyl)-6-(4-fluorophenoxy)phthalazine]
- IC50: ≤ 5 µM

Compound: Cc1ccc(C(=O)NC2CC2)cc1-c1ccc2c(C(C)C)nncc2c1 [Example 13, N-Cyclopropyl-3-(1-isopropylphthalazin-6-yl)-4-methylbenzamide]
- IC50: ≤ 5 µM

Compound: Cc1ccc2c(NC3CC3)noc2c1-c1ccc2c(N3CCOC[C@@H]3C)nncc2c1 [Example 14, N-cyclopropyl-6-methyl-7-(1-((S)-3-methylmorpholino)phthalazin-6-yl)benzo[d]isoxazol-3-amine]
- IC50: ≤ 5 µM

Compound: CNc1noc2c(-c3ccc4c(N5CCOC[C@@H]5C)nncc4c3)c(Cl)ccc12 [Example 15, 6-chloro-N-methyl-7-(1-((S)-3-methylmorpholino)phthalazin-6-yl)benzo[d]isoxazol-3-amine]
- IC50: ≤ 5 µM

Compound: C[C@H]1COCCN1c1nncc2cc(-c3ccc(C(F)(F)F)c4c(NC(C)(C)C)noc34)ccc12 [Example 16, N-tert-butyl-7-(1-((S)-3-methylmorpholino)phthalazin-6-yl)-4-(trifluoromethyl)benzo[d]isoxazol-3-amine]
- IC50: ≤ 5 µM

Compound: Cc1ccccc1-c1ccc2c(N3CCOCC3c3ccc(Cl)cc3)nncc2c1 (stereo not shown) [Example 17, 1-(3-(4-chlorophenyl)morpholino)-6-o-tolylphthalazine]
- IC50: ≤ 5 µM

Compound: Cc1ccc(-c2nncc3cc(-c4cc(C(=O)NC5CC5)ccc4C)ccc23)c(C)c1 [Example 18, N-cyclopropyl-3-[1-(2,4-dimethylphenyl)phthalazin-6-yl]-4-methylbenzamide]
- IC50: ≤ 5 µM

Compound: Cc1ccc(C(=O)NC2CC2)cc1-c1ccc2c(N3CC4CC3CN4)nncc2c1 (stereo not shown) [Example 20, 3-(1-(2,5-diaza-bicyclo[2.2.1]heptan-2-yl)phthalazin-6-yl)-N-cyclopropyl-4-methylbenzamide]
- IC50: ≤ 5 µM

Compound: Cc1ccc(C(=O)NC2CC2)cc1-c1ccc2c(N3CCN(C)CC3)nncc2c1 [Example 23, N-cyclopropyl-4-methyl-3-(1-(4-methylpiperazin-1-yl)phthalazin-6-yl)benzamide]
- IC50: ≤ 5 µM

Compound: Cc1ccc(C(=O)NC2CC2)cc1-c1ccc2c(N3CC4CC3CO4)nncc2c1 (stereo not shown) [Example 27, 3-(1-(5-oxa-2-aza-bicyclo[2.2.1]heptan-2-yl)phthalazin-6-yl)-N-cyclopropyl-4-methylbenzamide]
- IC50: ≤ 5 µM

Compound: Cc1ccc(C(=O)NC2CC2)cc1-c1ccc2c(N3CCCC(C(N)=O)C3)nncc2c1 (stereo not shown) [Example 29, 1-(6-(5-(cyclopropylcarbamoyl)-2-methylphenyl)phthalazin-1-yl)piperidine-3-carboxamide]
- IC50: ≤ 5 µM

Compound: O=C(NC1CC1)c1ccc(Cl)c(-c2ccc3c(N4CCOCC4)nncc3c2)c1 [Example 38, 4-chloro-N-cyclopropyl-3-(1-morpholinophthalazin-6-yl)benzamide]
- IC50: ≤ 5 µM

Compound: CCNC(=O)c1ccc(C)c(-c2ccc3c(N4CCOCC4)nncc3c2)c1 [Example 41, N-ethyl-4-methyl-3-(1-morpholinophthalazin-6-yl)benzamide]
- IC50: ≤ 5 µM

Compound: COc1ccc(C(F)(F)F)cc1NC(=O)c1ccc(C)c(-c2ccc3c(N4CCOCC4)nncc3c2)c1 [Example 43, N-(2-methoxy-5-(trifluoromethyl)phenyl)-4-methyl-3-(1-morpholinophthalazin-6-yl)benzamide]
- IC50: ≤ 5 µM

Compound: Cc1cc(C(=O)NC2CC2)sc1-c1ccc2c(N3CCOCC3)nncc2c1 [Example 46, N-cyclopropyl-4-methyl-5-(1-morpholinophthalazin-6-yl)thiophene-2-carboxamide]
- IC50: ≤ 5 µM

Compound: Cc1cc(C(=O)O)sc1-c1ccc2c(N3CCOCC3)nncc2c1 [Example 47, 4-methyl-5-(1-morpholinophthalazin-6-yl)thiophene-2-carboxylic acid]
- IC50: ≤ 5 µM

Compound: CCSc1nncc2cc(-c3cc(C(=O)NC4CC4)ccc3C)ccc12 [Example 55, N-cyclopropyl-3-(1-(ethylthio)phthalazin-6-yl)-4-methylbenzamide]
- IC50: ≤ 5 µM

Compound: Cc1ccc(C(=O)NC2CC2)cc1-c1ccc2c(N3CCC(=O)CC3)nncc2c1 [Example 58, N-cyclopropyl-4-methyl-3-[1-(4-oxopiperidin-1-yl)phthalazin-6-yl]benzamide]
- IC50: ≤ 5 µM

Compound: Cc1ccc(C(N)=O)cc1-c1ccc2c(N3CC[S+]([O-])CC3)nncc2c1 [Example 60, 4-methyl-3-[1-(1-oxidothiomorpholin-4-yl)phthalazin-6-yl]benzamide]
- IC50: ≤ 5 µM

Compound: Cc1ccc(C(=O)NC2CC2)cc1-c1ccc2c(N3CCC(O)(C(C)C)CC3)nncc2c1 [Example 61, N-cyclopropyl-3-(1-(4-hydroxy-4-isopropylpiperidin-1-yl)phthalazin-6-yl)-4-methylbenzamide]
- IC50: ≤ 5 µM

Compound: Cc1ccc(C(=O)NC2CC2)cc1-c1ccc2c(C3=CCNCC3)nncc2c1 [Example 62, N-cyclopropyl-4-methyl-3-(1-(1,2,3,6-tetrahydropyridin-4-yl)phthalazin-6-yl)benzamide]
- IC50: ≤ 5 µM

Compound: Cc1ccc(C(=O)NC2CC2)cc1-c1ccc2c(N3CCNC[C@@H]3C)nncc2c1 [Example 63, N-cyclopropyl-4-methyl-3-(1-((S)-2-methylpiperazin-1-yl)phthalazin-6-yl)benzamide]
- IC50: ≤ 5 µM

Compound: Cc1ccc(C(=O)NC2CC2)cc1-c1ccc2c(C3CCNCC3)nncc2c1 [Example 64, N-cyclopropyl-4-methyl-3-(1-(piperidin-4-yl)phthalazin-6-yl)benzamide]
- IC50: ≤ 5 µM

Compound: CNc1noc2c(-c3ccc4c(N5C[C@@H](C)OC[C@H]5C)nncc4c3)c(C)ccc12 [Example 65, 7-(1-((2R,5R)-2,5-dimethylmorpholino)phthalazin-6-yl)-N,6-dimethylbenzo [d]isoxazol-3-amine]
- IC50: ≤ 5 µM

Compound: CC(=O)N1CCN(c2nncc3cc(-c4cc(C(=O)N(C(C)=O)C5CC5)ccc4C)ccc23)CC1 [Example 66, N-acetyl-3-(1-(4-acetylpiperazin-1-yl)phthalazin-6-yl)-N-cyclopropyl-4-methylbenzamide]
- IC50: ≤ 5 µM

Compound: CC(=O)N1CCC(c2nncc3cc(-c4cc(C(=O)NC5CC5)ccc4C)ccc23)CC1 [Example 67, 3-(1-(1-acetylpiperidin-4-yl)phthalazin-6-yl)-N-cyclopropyl-4-methylbenzamide]
- IC50: ≤ 5 µM

Compound: Cc1ccc(C(=O)NC2CC2)cc1-c1ccc2c(N3C(C)CC[C@@H]3C(=O)NC(C)C)nncc2c1 (stereo partly drawn) [Example 68, (2R)-1-(6-(5-(Cyclopropylcarbamoyl)-2-methylphenyl)phthalazin-1-yl)-N-isopropyl-5-methylpyrrolidine-2-carboxamide]
- IC50: ≤ 5 µM

Compound: O=C(NC1CC1)c1cccc(-c2ccc3c(N4CCOCC4)nncc3c2)c1 [Example 69, N-Cyclopropyl-3-(1-morpholin-4-ylphthalazin-6-yl)benzamide]
- IC50: ≤ 5 µM

Compound: Cc1ccc(C(=O)NC2CC2)cc1-c1ccc2c(C(=O)NC(C)C)nncc2c1 [Example 70, 6-{5-[(Cyclopropylamino)carbonyl]-2-methylphenyl}-N-isopropylphthalazine-1-carboxamide]
- IC50: ≤ 5 µM

Compound: O=C(NC1CC1)c1ccc(F)c(-c2ccc3c(N4CCOCC4)nncc3c2)c1 [Example 72, N-Cyclopropyl-4-fluoro-3-(1-morpholin-4-ylphthalazin-6-yl)benzamide]
- IC50: ≤ 5 µM

Compound: NC(=O)c1ccc(Cl)c(-c2ccc3c(N4CCOCC4)nncc3c2)c1 [Example 73, 4-Chloro-3-(1-morpholin-4-ylphthalazin-6-yl)benzamide]
- IC50: ≤ 5 µM

Compound: Cc1ccc(C(=O)NC2CC2)cc1-c1ccc2c(N3CCOC[C@H]3C)nncc2c1 [Example 75, N-Cyclopropyl-4-methyl-3-{1-[(3R)-3-methylmorpholin-4-yl]phthalazin-6-yl}benzamide]
- IC50: ≤ 5 µM
